Data published in article PMC11571215, “Optimization of Antiproliferative Properties of Triimine Copper(II) Complexes” (Journal of Medicinal Chemistry, 2024).

Columns and labels:
[1] = tested on: HCT116-DoxR 3D spheroids; experiment: CellTox Green cytotoxicity assay in 3D spheroids; type: cell-based, human; conditions: 4.8 μM Cu1a or 5.8 μM Cu1b; 3, 24, 48, 72 h
Method: Moreover, over time a detachment of death cells from the spheroids is observed (with green cells in the periphery of the outer region of the spheroids more clearly visualized at 72 h of exposure; Figure 5B and Supplementary Figure S16B,C).
(§1) HCT116-DoxR cells were seeded at 5 × 10^4 cells/mL in super low Attachment 96-well plates (NunclonSphera U-Shaped-Bottom Microplate, Thermo Fisher Scientific, Waltham, MA, USA) and incubated at 37 °C in a humidified atmosphere with 5% (v/v) CO2, to allow spheroids formation and growth.[60],[105] To perform the cell viability study, two methods were used: the MTS assay and the CellTox assay.
For the CellTox assay, HCT116DoxR spheroids grown for 6 to 9 days were used. […] CellTox Green dye is an asymmetric cyanine dye that enters cells with compromised membrane integrity and binds to DNA, which enhances its fluorescence. […] Therefore, higher levels of fluorescence are associated with a higher number of death cells.[106] […] After 3, 24, 48, and 72 h of incubation, fluorescence images were acquired with Ti–U Eclipse inverted microscope (Nikon), with a FITC filter (excitation at 465–495 nm, in the blue region, and emission at 515–555 nm, in the green region).
The software ImageJ was used for fluorescence quantification in which the Corrected Total Cell Fluorescence (CTCF, eq 6) was determined. […]

[2] = tested on: chicken embryo chorioallantoic membrane; experiment: Ex-ovo CAM assay: in vivo toxicity and angiogenic potential; conditions: IC50 concentrations; for angiogenic potential (tertiary veins): 24 h, normalized to DMSO; for in vivo toxicity (embryo death): chicken embryo
Source text: The ex-ovo Chorioallantoic Membrane (CAM) assay has become a preclinical model of choice for assessing the cytotoxicity of Cu(II) complexes and in vivo angiogenesis.[38] The CAM is an extraembryonic membrane formed by mesodermal layers, highly vascularized despite being compromised, making it ideal for studying angiogenesis and antiangiogenesis in response to biomolecules and drugs.[97] […] In these assays, highly vascularized regions surrounded by O-rings on the chorioallantoic membrane of chicken embryos were studied. […] Eight embryos were used as biological replicates. Images were taken immediately after exposure to the complexes and control (0 h) and 24 h later. The values were normalized to the number of tertiary veins after exposure to the DMSO control and are represented in Figures 19 and S25.
To assess the angiogenic potential of the copper complexes, an ex-ovo CAM (chick chorioallantoic membrane) in vivo model using chicken eggs was performed. Fertilized eggs were opened, and the embryos and blood vessels were stabilized for 24 h in an incubator at 37 °C in perforated individual weighing boxes. After incubation, 4 silicone O-rings were placed on areas with a high number of blood vessels. […] The area limited by each O-ring was photographed immediately after the addition of the complexes and after 24 and 48 h of incubation at 37 °C. The images were captured with a digital USB microscope camera (Opti-Tekscope OT-V1). Image analysis was performed using ImageJ software.

[3] = tested on: calf-thymus DNA (ctDNA); experiment: Ethidium bromide displacement assay; type: binding; conditions: for Ksv (Stern-Volmer constant): ctDNA-EB adduct in PBS buffer, EB 50 μM
Source text: Compounds that intercalate between DNA base pairs equally or more strongly than EB replace it from the adduct ctDNA-EB, which results in a noticeable decrease or quenching of the fluorescence emission. […] For both Cu1a and Cu1b, the decrease in the fluorescence intensity of ctDNA-EB with increasing complex concentrations fulfills the linear Stern–Volmer equation (eq 3)[90]: [drawing 6] 3
The apparent binding constants (Kapp) are estimated using eq 4: [drawing 7] 4 (where KEB = 1.0 × 10^7 M^–1, [EB] is the EB concentration (50 μM), [Q50] is the complex concentration at 50% reduction of EB fluorescence intensity, estimated based on the linear Stern–Volmer plot for I^0/I = 2). Kapp is equal to 1.75 × 10^5 M^–1 for Cu1a and 2.35 × 10^6 M^–1 for Cu1b. […] Nevertheless, both Cu(II) complexes show rather moderate ability to replace EB from the adduct with ctDNA.[21]
Ethidium bromide (EB) and calf-thymus DNA (ctDNA) were purchased from Sigma-Aldrich and Thermo Fisher Scientific, respectively. Prior to experiments, a solution containing 10 mg/mL of ctDNA in DNase-free and RNase-free distilled, deionized water was spectroscopically monitored at 260 nm and at 280 nm to determine the concentration and check the purity.
The ethidium bromide (EB) fluorescence displacement assay was carried out using a Hitachi F-7000 spectrofluorometer. An equimolar amount (50 μM) of EB solution was added to ctDNA solution at room temperature, followed by 2 h incubation in the dark. The compound was then titrated into the EB–ctDNA mixture, well mixed, and allowed to stand for 30 min. The concentrations of the complexes varied from 0 to 40 μM.

[4] = tested on: HCT116-DoxR 3D spheroids; experiment: MTS cell viability assay in 3D tumor spheroids; type: cell-based, human; conditions: spheroids with 6 days of growth, 48 h of exposure
Method: The research on tumor microenvironment (TME) has recently been gaining attention due to its important role in tumor growth, progression, and response to therapy.[57]−[60] Because of this, the development of 3D cancer models that mimic the interactions in the TME and the tumor structure and complexity is of great relevance to cancer research and drug development. […] The MTS assay was performed inHCT116-DoxR 3D spheroids with 6 days of growth (Figure S15 in ESI), followed by exposure to the complexes for 48 h. The results of cell viabilities and respective relative IC50 values calculated are provided in Figure 4 and Table 5, respectively.
as §1
For MTS assay, HCT116DoxR spheroids grown for 6 to 8 days were used. […] The spheroids were further incubated for 4 h and subsequently transferred the medium to a 96-well flat-bottom plate for analysis using the Tecan Infinite M200 microplate reader (Tecan, Männedorf, Switzerland).

[5] = tested on: HCT116-DoxR cells; experiment: Mitochondrial membrane potential (JC-1, flow cytometry); type: cell-based, human; conditions: 48 h; complexes at IC50, Dox 6 μM, Cis 5 μM; normalized to DMSO
Source text: Changes in membrane potential can be measured and represent an essential parameter, indicating the functional state of the mitochondria. For this analysis, the lipophilic cationic probe 5,5′,6,6′-tetrachloro-1,1′,3,3′-tetraethylbenzimidazolylcarbocyanine iodide (JC-1) was used, allowing the evaluation of depolarization or hyperpolarization of the mitochondrial membrane.[72] In healthy cells, JC-1 accumulates inside the electronegative mitochondria as aggregates (red fluorescence) when the membrane potential is positively charged (hyperpolarized).[71] However, when depolarization of the mitochondrial membrane potential occurs, the JC-1 probe will accumulate outside of the mitochondria in its monomeric form (green fluorescence), therefore causing a decrease in the ratio of JC-1 aggregate/monomer fluorescence intensity.[61],[71] […] Subsequently, the cells were stained with the JC-1 probe and subjected to flow cytometry analysis to confirm potential alterations in the mitochondrial membrane potential induced by the complexes. […]
The mitochondrial membrane potential (ΔΨM) was evaluated by using the JC-1 Mitochondrial Membrane Potential Assay Kit (Abnova Corporation, Walnut, California, USA). […] The samples were then analyzed in the Attune Acoustic Focusing Flow Cytometer (Life Technologies, Carlsbad, CA, USA) and results were processed with Attune Cytometric software.

Compound	cell death in spheroids (CellTox Green fluorescence) [1]	angiogenic potential (tertiary veins) [2]	in vivo toxicity (embryo death) [2]	Ksv (Stern-Volmer constant) [3]	IC50 [4] [µM]	JC-1 red/green fluorescence ratio (aggregate/monomer) [5]	apparent binding constant Kapp ([3]; eq 4, KEB = 1.0 × 10^7 M^–1, [EB] 50 μM)
[Cl][Cu-3]12([Cl])[n+]3ccccc3-c3cc(-c4cccc5ccccc45)cc([n+]31)-c1cccc[n+]12 [Cu1a]	the increase of cell death	did not show significant pro- or antiangiogenic properties	do not show in vivo toxicity in a chicken embryo	3.8 × 10^3 M^–1	10.1 ± 0.22	approximately 0.79	
[Cl][Cu-3]12([Cl])[n+]3ccccc3-c3cc(-c4ccc5ccccc5c4)cc([n+]31)-c1cccc[n+]12 [Cu1b]	the increase of cell death	did not show significant pro- or antiangiogenic properties	do not show in vivo toxicity in a chicken embryo	4.7 × 10^3 M^–1	33.9 ± 0.4	0.88	2.35 × 10^6 M^–1
